{"source": "patent US12492163B2", "about": "“9H-fluorene derivatives or their pharmaceutically acceptable salts” (priority 2020, dated 2025)", "key": {"[1]": {"molecular_target": "human plasma butyrylcholinesterase (hBuChE) (Homo sapiens (Human), UniProt P06276)", "sequence (P06276 29-602)": "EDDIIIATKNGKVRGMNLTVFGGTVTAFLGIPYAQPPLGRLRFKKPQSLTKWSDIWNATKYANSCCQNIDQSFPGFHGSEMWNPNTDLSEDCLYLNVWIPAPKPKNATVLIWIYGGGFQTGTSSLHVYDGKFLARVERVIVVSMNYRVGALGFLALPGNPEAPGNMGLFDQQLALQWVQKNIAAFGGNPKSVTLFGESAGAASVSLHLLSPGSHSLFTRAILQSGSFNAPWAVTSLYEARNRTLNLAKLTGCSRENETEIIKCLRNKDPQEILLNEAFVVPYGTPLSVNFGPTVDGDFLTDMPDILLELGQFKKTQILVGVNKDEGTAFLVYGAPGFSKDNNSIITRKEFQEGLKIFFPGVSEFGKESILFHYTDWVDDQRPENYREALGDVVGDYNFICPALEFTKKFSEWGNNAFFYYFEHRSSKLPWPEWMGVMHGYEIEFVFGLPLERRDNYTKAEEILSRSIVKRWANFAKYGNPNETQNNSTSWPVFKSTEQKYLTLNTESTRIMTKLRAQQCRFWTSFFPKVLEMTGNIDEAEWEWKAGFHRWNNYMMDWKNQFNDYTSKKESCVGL", "experiment": "Ellman's test, inhibition of human plasma butyrylcholinesterase", "format": "biochemical", "procedure,_shortened": "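Modified Ellman assay: compound preincubated 5 min with enzyme and DTNB in 0.1 M phosphate buffer pH 8.0 at 25° C (eqBuChE) or 36° C (hBuChE), then butyrylthiocholine added; absorbance change at 412 nm read after 5 min. Screening at 10 μM (eqBuChE) or 1 μM (hBuChE); IC50 by non-linear regression, triplicates.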"}, "mGAT1": {"molecular_target": "mGAT1 (Mus musculus (Mouse), UniProt P31648)", "experiment": "[3H]GABA uptake inhibition, mGAT1 in HEK293 cells", "format": "cell-based", "conditions": "GABA reuptake", "procedure": "(§1) Exemplary compounds according to the invention were screened at the Ludwig-Maximilian University of Munich to determine the inhibitory ability towards four mouse GAT transporters (mGAT1-mGAT4). […] The biological material was stably transfected human embryonic kidney HEK293 cells, expressing genes to the appropriate transporters. The generated radioactivity was measured with a liquid scintillation counter. […] These determinations were made according to the procedure described in detail in A. Kragler, G. Höfner, K. T. Wanner, Novel parent structures for inhibitors of the murine GABA transporters mGAT3 and mGAT4, Eur. J. Pharmacol. 519 (2005) 43-47."}, "mGAT3": {"molecular_target": "mGAT3 (Mus musculus (Mouse), UniProt P31649)", "sequence (P31649 whole entry)": "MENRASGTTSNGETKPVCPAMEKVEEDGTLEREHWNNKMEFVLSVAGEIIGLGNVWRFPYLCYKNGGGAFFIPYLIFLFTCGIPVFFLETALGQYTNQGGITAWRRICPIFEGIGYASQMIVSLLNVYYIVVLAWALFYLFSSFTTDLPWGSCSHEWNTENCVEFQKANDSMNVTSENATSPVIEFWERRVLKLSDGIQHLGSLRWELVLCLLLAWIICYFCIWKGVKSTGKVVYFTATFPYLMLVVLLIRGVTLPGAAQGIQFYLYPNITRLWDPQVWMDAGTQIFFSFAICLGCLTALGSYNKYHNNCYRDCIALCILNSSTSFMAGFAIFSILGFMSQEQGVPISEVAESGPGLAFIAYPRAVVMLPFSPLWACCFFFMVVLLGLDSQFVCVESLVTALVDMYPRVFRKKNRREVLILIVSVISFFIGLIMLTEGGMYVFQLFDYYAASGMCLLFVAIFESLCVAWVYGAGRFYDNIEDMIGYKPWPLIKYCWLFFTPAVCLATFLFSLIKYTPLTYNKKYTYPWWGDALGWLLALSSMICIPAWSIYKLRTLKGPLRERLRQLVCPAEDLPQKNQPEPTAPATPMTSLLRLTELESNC", "experiment": "[3H]GABA uptake inhibition, mGAT3 in HEK293 cells", "format": "cell-based", "conditions": "GABA reuptake", "procedure": "as §1"}}, "data": [{"compound": "O[C@H](CNCC1CC1)[C@H](Cc1ccccc1)NC1c2ccccc2-c2ccccc21", "note": "[JT-3, (2R,3S)-3-((9H-fluoren-9-yl)amino)-1-((cyclopropylmethyl)amino)-4-phenylbutan-2-ol]", "values": [{"measurement": "IC50", "setting": "[1]", "value": 207, "unit": "nM"}, {"measurement": "pIC50 (+/−SEM) mGAT1", "setting": "mGAT1", "value": 4.96}, {"measurement": "pIC50 (+/−SEM) mGAT3", "setting": "mGAT3", "value": "5.13 +/− 0.04"}]}]}
